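Cells were grown in 96-well plates and exposed to each compound for 48 hours at five concentrations; endpoints were interpolated linearly between bracketing concentrations, or set to the highest concentration if not reached. GI50 marks 50% less growth. TGI is the concentration that stops growth completely.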

Test systems include KM12 colon; RPMI-8226 leukemia; SK-MEL-5 melanoma; T-47D breast; UACC-62 melanoma.
Assay in all cases: NCI-60 cell line screen, 48 h

For the compound `CC(=O)/C=C/C1=C(c2ccsc2)c2ccccc2CC1`, the GI50 in the assay with KM12 colon is 17.2 µM; in the assay with RPMI-8226 leukemia, 23.2 µM; in the assay on SK-MEL-5 melanoma it was 16.3 µM; in the assay with T-47D breast, 66 µM; in the assay on UACC-62 melanoma, 16.2 µM. The TGI was 33 µM with KM12 colon; 47.6 µM in the assay on RPMI-8226 leukemia; 31.6 µM in the assay on SK-MEL-5 melanoma; above 100 µM with T-47D breast; 37.1 µM in the assay with UACC-62 melanoma.
Regarding `C[C@@H]1CN2[C@H]3[C@@H]1CC[C@]31CCC(=O)O[C@]1(C)[C@@H]1CC[C@H]3CCC=C3[C@@H]12`, the GI50 in the assay on KM12 colon, with RPMI-8226 leukemia, with SK-MEL-5 melanoma, in the assay with T-47D breast and in the assay with UACC-62 melanoma was above 70 µM in each case. Moreover, the TGI with KM12 colon, in the assay on RPMI-8226 leukemia, in the assay on SK-MEL-5 melanoma, with T-47D breast and in the assay with UACC-62 melanoma was above 70 µM throughout.
Consider `CCN(CC)c1ccc2nc3c4ccccc4c(=NC(=O)c4ccccc4-c4c5ccc(N(CC)CC)cc5[o+]c5cc(N(CC)CC)ccc45)cc-3oc2c1`, for which the GI50 in the assay with KM12 colon was 2.25 µM; in the assay on RPMI-8226 leukemia, 0.722 µM; in the assay with SK-MEL-5 melanoma it was 1.26 µM; with T-47D breast, 5.25 µM; in the assay on UACC-62 melanoma it was 5.73 µM. Besides, the TGI was 7.94 µM in the assay on KM12 colon; 4.2 µM in the assay with RPMI-8226 leukemia; 2.68 µM with SK-MEL-5 melanoma; 17.3 µM in the assay on T-47D breast; 17.9 µM with UACC-62 melanoma.
Turning to `OC(c1ccccc1)c1c(-c2ccccc2)oc(-c2ccccc2)c1C(O)c1ccccc1` (centres undefined), the TGI came to 18.9 µM in the assay with KM12 colon; 14 µM in the assay with RPMI-8226 leukemia; 23.6 µM in the assay with SK-MEL-5 melanoma; 23.3 µM in the assay with T-47D breast; 25.6 µM in the assay with UACC-62 melanoma.
Regarding `Cc1cc2nc3c4ccccc4n(CCN(C)C)c3nc2cc1C`, the GI50 was 1.93 µM with KM12 colon, 1.7 µM in the assay on SK-MEL-5 melanoma, 2.8 µM with T-47D breast and 1.43 µM with UACC-62 melanoma. Also, the TGI in the assay with KM12 colon stood at 9.8 µM; in the assay with SK-MEL-5 melanoma, 3.19 µM; with T-47D breast, 12.6 µM; in the assay on UACC-62 melanoma, 2.82 µM.
With `NC(=O)NC(=O)C1CCCCC1C(=O)O` (centres undefined), the TGI with KM12 colon, in the assay on RPMI-8226 leukemia, with SK-MEL-5 melanoma, with T-47D breast and in the assay with UACC-62 melanoma was above 100 µM throughout.
`N#CSCC(=O)c1ccc(Cl)cc1`: the GI50 in the assay on KM12 colon is 2.59 µM; in the assay on RPMI-8226 leukemia it was 1.44 µM; with SK-MEL-5 melanoma it was 2.31 µM; in the assay on T-47D breast, 7.84 µM; in the assay on UACC-62 melanoma it was 6.4 µM. For the same compound, the TGI turned out to be 7.33 µM in the assay with KM12 colon; 4.65 µM in the assay on RPMI-8226 leukemia; 14.7 µM in the assay with SK-MEL-5 melanoma; 67.9 µM in the assay with T-47D breast; 21.5 µM with UACC-62 melanoma.
For `COc1cccc(Nc2nccc(Nc3ccc4[nH]ncc4c3)n2)c1`, the GI50 is 1.64 µM in the assay on KM12 colon, 1.36 µM in the assay with RPMI-8226 leukemia, 1.22 µM with SK-MEL-5 melanoma and 1.05 µM in the assay with T-47D breast. The TGI with KM12 colon was 4.81 µM; in the assay on RPMI-8226 leukemia, 4.19 µM; in the assay on SK-MEL-5 melanoma, 2.47 µM; with T-47D breast, 3.12 µM.
Turning to `C/C(=N\Nc1cccc(Cl)n1)c1ccccn1`, the GI50 was 0.548 µM in the assay with KM12 colon; 0.615 µM in the assay with RPMI-8226 leukemia; 1.62 µM in the assay with SK-MEL-5 melanoma; 1.09 µM with T-47D breast; 1.22 µM in the assay on UACC-62 melanoma. The TGI is above 100 µM in the assay with KM12 colon; 8.28 µM in the assay with RPMI-8226 leukemia; 4.62 µM in the assay with SK-MEL-5 melanoma; 13.1 µM with T-47D breast; 4.93 µM in the assay with UACC-62 melanoma.
Turning to `Nc1cccc2nsnc12`, the TGI in the assay with KM12 colon is above 100 µM; in the assay on RPMI-8226 leukemia, above 86.9 µM; in the assay on SK-MEL-5 melanoma, above 100 µM; in the assay with T-47D breast it was above 100 µM; in the assay on UACC-62 melanoma it was above 100 µM.
As for `CCNCCNc1cc(-c2cccc(C(F)(F)F)c2)c(C#N)c2nc3ccccc3n12`, the GI50 was 1.63 µM in the assay with KM12 colon, 1.76 µM in the assay on SK-MEL-5 melanoma, 2.2 µM in the assay with T-47D breast and 1.69 µM with UACC-62 melanoma. Further, the TGI with KM12 colon came out at 3.13 µM; in the assay with SK-MEL-5 melanoma, 3.16 µM; in the assay with T-47D breast it was 4.21 µM; with UACC-62 melanoma, 3.2 µM.
Turning to `N#CC(C#N)=Cc1ccc(-c2ccc(-c3nc4ccccc4o3)cc2)o1`, the GI50 in the assay on KM12 colon is 19.4 µM; with SK-MEL-5 melanoma, 13.1 µM; in the assay with T-47D breast, 5.04 µM; in the assay with UACC-62 melanoma it was 42.4 µM. The TGI was above 100 µM in the assay on KM12 colon, 62.5 µM in the assay with SK-MEL-5 melanoma, 90.1 µM in the assay with T-47D breast and above 100 µM in the assay with UACC-62 melanoma.
Take `Brc1ccc(Br)nn1`: the GI50 with KM12 colon is 12 µM; in the assay on RPMI-8226 leukemia it was 1.83 µM; in the assay on SK-MEL-5 melanoma, 1.49 µM; in the assay on T-47D breast, 1.36 µM; in the assay on UACC-62 melanoma it was 1.88 µM. For the same compound, the TGI in the assay with KM12 colon stood at 26.1 µM; with RPMI-8226 leukemia, 6.44 µM; with SK-MEL-5 melanoma it was 3.85 µM; with T-47D breast, 3.77 µM; in the assay with UACC-62 melanoma, 6.24 µM.
For the compound `CC(=O)OCC(=O)C1(O)C(C)CC2C3C=C(C)C4=Cc5c(cnn5-c5ccccc5)CC4(C)C3C(O)CC21C` (centres undefined), the GI50 in the assay with KM12 colon was 1.32 µM; in the assay with RPMI-8226 leukemia, below 0.0345 µM; in the assay with SK-MEL-5 melanoma, 1.45 µM; in the assay on T-47D breast it was 2.63 µM; with UACC-62 melanoma it was 1.77 µM. For the same compound, the TGI in the assay with KM12 colon came to 2.78 µM; in the assay with SK-MEL-5 melanoma, 2.87 µM; in the assay with T-47D breast, 9.39 µM; with UACC-62 melanoma it was 3.8 µM.
`Cc1sc(/N=C2/NC(=O)CS2)nc1-c1nc(/N=C2/NC(=O)CS2)sc1C`: the GI50 with KM12 colon was 28.9 µM; with RPMI-8226 leukemia, 9.59 µM; in the assay on SK-MEL-5 melanoma it was 31.2 µM; with UACC-62 melanoma it was 15.9 µM. Further, the TGI in the assay on KM12 colon was above 50 µM; with RPMI-8226 leukemia, 49.1 µM; with SK-MEL-5 melanoma, above 50 µM; with UACC-62 melanoma, above 50 µM.

For the origin of these results see PubChem BioAssay (NCI).
